In patent US8663912B2, “Fluorogenic substrate for ADAMTS13” (Washington University, priority 2011, dated 2014):
* marks the point of attachment. X1 = CC1(C)C(/C=C/C2=C(Cl)C(=C/C=C3/N(CCCCCC(=O)*)c4ccc5cc(S(=O)(=O)O)ccc5c4C3(C)C)/CCC2)=[N+](CCCS(=O)(=O)[O-])c2ccc(N(CCCS(=O)(=O)O)CCCS(=O)(=O)O)cc21; X2 = CC(C)(C)c1cc(/C=C/C=C2\N(CCCS(=O)(=O)O)c3ccc(S(=O)(=O)O)cc3C2(C)CCCC(=O)CCN2C(=O)CC(*)C2=O)c2ccc(N(CCCS(=O)(=O)[O-])CCCS(=O)(=O)O)cc2[o+]1

Assays:
plasma ADAMTS13 = biological target: T1, plasma ADAMTS13 (Homo sapiens, UniProt Q76LX8); assay: Kinetics of FRETS-rVWF71 cleavage by plasma ADAMTS13 (Michaelis-Menten); format: biochemical
T1 construct: from tissue; host or cells: human plasma or serum (pooled normal plasma, healthy donors, TTP patients)
T1 sequence (Q76LX8 75-1427): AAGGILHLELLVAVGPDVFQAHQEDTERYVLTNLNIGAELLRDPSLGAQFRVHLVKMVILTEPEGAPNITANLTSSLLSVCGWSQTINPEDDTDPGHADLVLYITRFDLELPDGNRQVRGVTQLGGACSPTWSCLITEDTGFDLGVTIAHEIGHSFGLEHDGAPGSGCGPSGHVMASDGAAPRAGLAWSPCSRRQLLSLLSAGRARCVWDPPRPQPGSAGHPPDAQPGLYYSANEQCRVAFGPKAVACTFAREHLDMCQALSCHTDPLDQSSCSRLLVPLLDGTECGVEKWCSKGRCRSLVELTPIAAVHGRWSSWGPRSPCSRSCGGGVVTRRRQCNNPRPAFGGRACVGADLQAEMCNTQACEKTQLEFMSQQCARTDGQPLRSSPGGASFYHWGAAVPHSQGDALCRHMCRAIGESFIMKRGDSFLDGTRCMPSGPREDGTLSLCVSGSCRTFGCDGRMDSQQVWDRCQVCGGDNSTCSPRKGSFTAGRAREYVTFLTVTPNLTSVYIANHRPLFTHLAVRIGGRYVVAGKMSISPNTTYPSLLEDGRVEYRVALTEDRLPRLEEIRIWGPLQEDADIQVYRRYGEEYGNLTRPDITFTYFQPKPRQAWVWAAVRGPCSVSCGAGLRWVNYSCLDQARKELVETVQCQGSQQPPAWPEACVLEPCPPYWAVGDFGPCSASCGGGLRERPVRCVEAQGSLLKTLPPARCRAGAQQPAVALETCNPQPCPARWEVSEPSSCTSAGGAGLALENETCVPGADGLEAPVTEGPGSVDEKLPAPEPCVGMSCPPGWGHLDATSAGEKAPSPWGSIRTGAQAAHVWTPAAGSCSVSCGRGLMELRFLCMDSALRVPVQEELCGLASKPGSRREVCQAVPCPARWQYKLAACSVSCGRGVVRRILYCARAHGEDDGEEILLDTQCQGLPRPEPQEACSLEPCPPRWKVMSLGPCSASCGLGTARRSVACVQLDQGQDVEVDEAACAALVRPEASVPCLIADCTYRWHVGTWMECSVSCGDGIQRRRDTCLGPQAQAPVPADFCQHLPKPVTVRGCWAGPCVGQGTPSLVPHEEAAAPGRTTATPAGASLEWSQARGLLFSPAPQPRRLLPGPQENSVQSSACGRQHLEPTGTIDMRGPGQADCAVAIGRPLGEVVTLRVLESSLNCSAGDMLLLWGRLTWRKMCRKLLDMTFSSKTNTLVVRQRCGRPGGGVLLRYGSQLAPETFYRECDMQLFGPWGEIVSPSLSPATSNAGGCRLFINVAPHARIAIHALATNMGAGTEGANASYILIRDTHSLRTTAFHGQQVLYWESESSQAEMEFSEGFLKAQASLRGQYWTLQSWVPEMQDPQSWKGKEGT
Protocol: In these experiments, FRETS-rVWF71 cleavage by plasma ADAMTS13 (50 μL) was assessed in 200 μL reactions containing 50 mM HEPES, pH 7.4, 10 mM CaCl2, 150 mM NaCl, and 0.05% Tween-20, and varying concentrations of FRETS-rVWF71. The concentration of ADAMTS13 in PNP is ˜1.03 μg/ml (Feys, H. B., et al. J. Thromb. Haemost 4:955-62, 2006), or ˜6 nM for a molecular mass of 170 kDa. For each concentration of substrate, the relationship between product fluorescence and concentration was determined directly by cleaving FRETS-rVWF71 to completion with excess recombinant ADAMTS13 MDTCS (Feys, H. B., et al. J. Thromb. Haemost. 7:2088-95, 2009) and measuring the fluorescence. Control assays contained plasma that was completely deficient in ADAMTS13. The initial velocities (nM/min) as a function of substrate concentration were fitted to the Michealis-Menten equation by nonlinear regression analysis (Prism, GraphPad).
(FIG. 6). […] (Anderson, P. J., et al. J. Biol. Chem. 281:850-7, 2006).

ADAMTS13 = biological target: T2, ADAMTS13 (Homo sapiens, UniProt Q76LX8); assay: Effect of bilirubin and hemoglobin on FRETS-rVWF71 ADAMTS13 assays; format: biochemical; design: FRETS-rVWF71 cleavage by plasma ADAMTS13 (50 μL) was assessed in 200 μL reactions; from tissue; host or cells: human plasma or serum (pooled normal plasma, healthy donors, TTP patients); conditions: >20 mg/dL (250 μM) conjugated bilirubin
T2 sequence (Q76LX8 75-1427): T1 sequence (Q76LX8 75-1427)

Question: Which “decrease of the rate of catalysis relative to FRETS-VWF73” value (plasma ADAMTS13; kcat compared with FRETS-VWF73) does the source give for “X1-GQAPNLVYMVTGC(X2)PASDEIRRLPGDIQVVPIGVGPNANVQELERIGWPNAPILIQDFETLPREAPDLVLQR [FRETS-rVWF71]” here?
Answer: ~8 fold

Question: What about the kcat (plasma ADAMTS13; plasma ADAMTS13, 50 mM HEPES pH 7.4, 10 mM CaCl2, 150 mM NaCl, 30° C.) of the same substance?
Answer: 0.113 s⁻¹

Question: And the “sensitivity of assay to conjugated bilirubin” value (ADAMTS13)?
Answer: insensitive
